Reference: patent US8399681B2, “Substituted aminothiazolone indazoles as estrogen related receptor-alpha modulators” (Janssen Pharmaceutica NV, priority 2009, dated 2013)

Target: T1, ERR1 (also known as ERR-α or ERR-1) (Homo sapiens, UniProt P11474)
T1 sequence (P11474 193-421 limits assumed): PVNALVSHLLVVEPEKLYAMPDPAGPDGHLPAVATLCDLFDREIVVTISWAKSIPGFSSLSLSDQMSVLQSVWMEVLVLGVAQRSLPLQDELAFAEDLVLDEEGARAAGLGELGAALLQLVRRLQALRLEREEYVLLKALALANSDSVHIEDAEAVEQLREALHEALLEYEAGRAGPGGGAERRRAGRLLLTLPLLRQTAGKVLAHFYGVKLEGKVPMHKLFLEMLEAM
Experiment: TR-FRET assay (disruption of co-activator peptide binding)
Type: biochemical
Conditions: 6His-tagged ERR1 LBD, GST-hSRC2 co-activator polypeptide; average of 3 independent experiments
Outline: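 His6-ERR1 LBD (6 nM) with GST-SRC-2 peptide (6 nM), anti-GST Eu cryptate (30 nM) and anti-His XL665 (7.5 nM) in Tris pH 8/KCl/DTT/BSA buffer, equilibrated 4-18 h at 25 °C. Ex 340, em 615/665 nm; hyperbolic dose-response fit, mean of 3 experiments.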

Row | EC50 [nM] | Structure (SMILES)
1 | 39 | CC(C)(C)N1CCN(C2=NC(=O)/C(=C/c3ccc4c(cnn4Cc4ccc(Cl)cc4C(F)(F)F)c3)S2)CC1 [Example 84, 2-(4-tert-Butyl-piperazin-1-yl)-5-[1-(4-chloro-2-trifluoromethyl-benzyl)-1H-indazol-5-ylmethylene]-thiazol-4-one]
2 | 6 | COC[C@@H]1CN(C2=NC(=O)/C(=C/c3ccc4c(cnn4Cc4ccc(Cl)cc4C(F)(F)F)c3)S2)CCN1 [Example 209, 5-({1-[4-Chloro-2-(trifluoromethyl)benzyl]-1H-indazol-5-yl}methylidene)-2-[3-(S)-(methoxymethyl)piperazin-1-yl]-1,3-thiazol-4(5H)-one]
3 | 14 | O=C1N=C(N2CCC(C(=O)O)C2)S/C1=C\c1ccc2c(cnn2Cc2ccc(Cl)cc2C(F)(F)F)c1 (stereo not drawn) [Example 137, 1-{5-[1-(4-Chloro-2-trifluoromethyl-benzyl)-1H-indazol-5-ylmethylene]-4-oxo-4,5-dihydro-thiazol-2-yl}-pyrrolidine-3-carboxylic acid]
4 | 21.4 | CC(C)(C)NC(=O)[C@@H]1CN(C2=NC(=O)/C(=C/c3ccc4c(cnn4Cc4ccc(C(F)(F)F)cc4C(F)(F)F)c3)S2)CCN1 [Example 220, 4-[5-({1-[2,4-Bis(trifluoromethyl)benzyl]-1H-indazol-5-yl}methylidene)-4-oxo-4,5-dihydro-1,3-thiazol-2-yl]-N-tert-butylpiperazine-2-(S)-carboxamide]
5 | 11 | CN1CCN(C2=NC(=O)/C(=C/c3ccc4c(cnn4Cc4ccc(Cl)cc4Br)c3)S2)CC1 [Example 95, 5-[1-(2-bromo-4-chlorobenzyl)-1H-indazol-5-ylmethylene]-2-(4-methyl-piperazin-1-yl)-thiazol-4-one]
6 | 38 | CC(C)(C)N1CCN(C2=NC(=O)/C(=C/c3ccc4c(cnn4Cc4ccc(C(F)(F)F)cc4C(F)(F)F)c3)S2)C[C@@H]1CO [Example 207, 5-({1-[2,4-Bis(trifluoromethyl)benzyl]-1H-indazol-5-yl}methylidene)-2-[4-tert-butyl-3-(R)-(hydroxymethyl)piperazin-1-yl]-1,3-thiazol-4(5H)-one]
7 | 15 | COc1ccc(Cn2ncc3cc(/C=C4\SC(N5CCC(C(=O)O)CC5)=NC4=O)ccc32)c(C(F)(F)F)c1 [Example 41, 1-{5-[1-(4-M ethoxy-2-trifluoromethyl-benzyl)-1H-indazol-5-ylmethylene]-4-oxo-4,5-dihydro-thiazol-2-yl}-piperidine-4-carboxylic acid]
8 | 450 | CS(=O)(=O)c1ccc(Cn2ncc3cc(/C=C4\SC(N5CCN(CCO)CC5)=NC4=O)ccc32)c(C(F)(F)F)c1 [Compound 16, 2-[4-(2-Hydroxy-ethyl)-piperazin-1-yl]-5-[1-(4-methanesulfonyl-2-trifluoromethyl-benzyl)-1H-indazol-5-ylmethylene]-thiazol-4-one]
9 | 36 | N#Cc1nn(Cc2ccc(C(F)(F)F)cc2C(F)(F)F)c2ccc(/C=C3\SC(N4CCN[C@H](CO)C4)=NC3=O)cc12 [Example 218, 1-[2,4-Bis(trifluoromethyl)benzyl]-5-({2-[3-(S)-(hydroxymethyl)piperazin-1-yl]-4-oxo-1,3-thiazol-5(4H)-ylidene}methyl)-1H-indazole-3-carbonitrile]
10 | 19.6 | O=C1N=C(N2CCN(CC(F)F)CC2)S/C1=C\c1ccc2c(cnn2Cc2ccc(Cl)cc2C(F)(F)F)c1 [Example 61, 5-[1-(4-Chloro-2-trifluoromethyl-benzyl)-1H-indazol-5-ylmethylene]-2-[4-(2,2-difluoro-ethyl)-piperazin-1-yl]-thiazol-4-one]
11 | 199 | CN1CCN(C2=NC(=O)/C(=C/c3ccc4c(cnn4Cc4ccc(C#N)cc4C(F)(F)F)c3)S2)CC1 [Compound 10, 4-{5-[2-(4-Methyl-piperazin-1-yl)-4-oxo-4H-thiazol-5-ylidenemethyl]-indazol-1-ylmethyl}-3-trifluoromethyl-benzonitrile]
12 | 14 | O=C1N=C(N2CC3CC2CN3)S/C1=C\c1ccc2c(cnn2Cc2ccc(Cl)cc2C(F)(F)F)c1 [Example 100, 5-[1-(4-Chloro-2-trifluoromethyl-benzyl)-1H-indazol-5-ylmethylene]-2-(2S,5S-diaza-bicyclo[2.2.1]hept-2-yl)-thiazol-4-one]
13 | 520 | COCCOc1ccc(Cn2ncc3cc(/C=C4\SC(N5CCN(C)CC5)=NC4=O)ccc32)c(C(F)(F)F)c1 [Compound 24, 5-{1-[4-(2-Methoxy-ethoxy)-2-trifluoromethyl-benzyl]-1H-indazol-5-ylmethylene}-2-(4-methyl-piperazin-1-yl)-thiazol-4-one]
14 | 42 | CC(=O)N1CCN(C2=NC(=O)/C(=C/c3ccc4c(cnn4Cc4ccc(F)cc4C(F)(F)F)c3)S2)CC1 [Compound 5, 2-(4-Acetyl-piperazin-1-yl)-5-[1-(4-fluoro-2-trifluoromethyl-benzyl)-1H-indazol-5-ylmethylene]-thiazol-4-one]
15 | 134 | C=C(C)c1ccc(Cn2ncc3cc(/C=C4\SC(N5CCN[C@@H](CO)C5)=NC4=O)ccc32)c(Cl)c1 [Example 230, 5-({1-[2-Chloro-4-(1-methylethenyl)benzyl]-1H-indazol-5-yl}methylidene)-2-[3-(R)-(hydroxymethyl)piperazin-1-yl]-1,3-thiazol-4(5H)-one]
16 | 7 | CN1CCN(C2=NC(=O)/C(=C/c3ccc4c(cnn4Cc4ccc(Cl)cc4C(F)(F)F)c3)S2)CC1(C)C [Example 221, 5-({1-[4-Chloro-2-(trifluoromethyl)benzyl]-1H-indazol-5-yl}methylidene)-2-(3,3,4-trimethylpiperazin-1-yl)-1,3-thiazol-4(5H)-one]
17 | 4.7 | COCC(=O)N1C[C@@H]2C[C@H]1CN2C1=NC(=O)/C(=C/c2ccc3c(cnn3Cc3ccc(Cl)cc3C(F)(F)F)c2)S1 [Example 89, 5-[1-(4-Chloro-2-trifluoromethyl-benzyl)-1H-indazol-5-ylmethylene]-2-[5-(2-methoxy-acetyl)-2S,5S-diaza-bicyclo[2.2.1]hept-2-yl]-thiazol-4-one]
18 | 49 | NC1CN(C2=NC(=O)/C(=C/c3ccc4c(cnn4Cc4ccc(Cl)cc4C4CC4)c3)S2)C1 [Example 92, 2-(3-Amino-azetidin-1-yl)-5-[1-(4-chloro-2-cyclopropyl-benzyl)-1H-indazol-5-ylmethylene]-thiazol-4-one]
19 | 58.7 | NC1CN(C2=NC(=O)/C(=C/c3ccc4c(cnn4Cc4ccc(C(F)(F)F)cc4C(F)(F)F)c3)S2)C1 [Example 77, 2-(3-Amino-azetidin-1-yl)-5-[1-(2,4-bis-trifluoromethyl-benzyl)-1H-indazol-5-ylmethylene]-thiazol-4-one]
20 | 14 | O=C1N=C(N2CC3COC(=O)C3C2)S/C1=C\c1ccc2c(cnn2Cc2ccc(Cl)cc2C(F)(F)F)c1 (stereo not drawn) [Example 144, 5-{5-[1-(4-Chloro-2-trifluoromethyl-benzyl)-1H-indazol-5-ylmethylene]-4-oxo-4,5-dihydro-thiazol-2-yl}-hexahydro-furo[3,4-c]pyrrol-1-one]
21 | 9 | NC(=O)CN1CCN(C2=NC(=O)/C(=C/c3ccc4c(cnn4Cc4ccc(Cl)cc4C(F)(F)F)c3)S2)CC1 [Example 79, 2-(4-{5-[1-(4-Chloro-2-trifluoromethyl-benzyl)-1H-indazol-5-ylmethylene]-4-oxo-4,5-dihydro-thiazol-2-yl}-piperazin-1-yl)-acetamide]
22 | 4.8 | CN1CCN(C2=NC(=O)/C(=C/c3ccc4c(cnn4Cc4ccc(Br)cc4C(F)(F)F)c3)S2)CC1 [Example 26, 5-[1-(4-Bromo-2-trifluoromethyl-benzyl)-1H-indazol-5-ylmethylene]-2-(4-methyl-piperazin-1-yl)-thiazol-4-one]
23 | 32 | CCOC(=O)N1CCCN(C2=NC(=O)/C(=C/c3ccc4c(cnn4Cc4ccc(Cl)cc4C(F)(F)F)c3)S2)CC1 [Example 128, 4-{5-[1-(4-Chloro-2-trifluoromethyl-benzyl)-1H-indazol-5-ylmethylene]-4-oxo-4,5-dihydro-thiazol-2-yl}-[1,4]diazepane-1-carboxylic acid ethyl ester]
24 | 127 | C[C@@H]1CN(C2=NC(=O)/C(=C/c3ccc4c(cnn4Cc4ccc(C(C)(C)O)cc4Cl)c3)S2)C[C@H](C)N1 [Example 233, 5-({1-[2-Chloro-4-(1-hydroxy-1-methylethyl)benzyl]-1H-indazol-5-yl}methylidene)-2-(3,5-(cis)-dimethylpiperazin-1-yl)-1,3-thiazol-4(5H)-one]
25 | 3 | COC[C@@H]1CN(C2=NC(=O)/C(=C/c3ccc4c(cnn4Cc4ccc(O)cc4C(F)(F)F)c3)S2)CCO1 [Example 236, 5-({1-[4-Hydroxy-2-(trifluoromethyl)benzyl]-1H-indazol-5-yl}methylidene)-2-[2(S)-(methoxymethyl)morpholin-4-yl]-1,3-thiazol-4(5H)-one]
26 | 27 | O=C1N=C(N2CCC[C@@H]2C(=O)O)S/C1=C\c1ccc2c(cnn2Cc2ccc(Cl)cc2C(F)(F)F)c1 [Example 46, 1-{5-[1-(4-Chloro-2-trifluoromethyl-benzyl)-1H-indazol-5-ylmethylene]-4-oxo-4,5-dihydro-thiazol-2-yl}-pyrrolidine-2-(R)-carboxylic acid]
27 | 19 | O=C1N=C(N2CCC(N3CCCC(O)C3)CC2)S/C1=C\c1ccc2c(cnn2Cc2ccc(Cl)cc2C(F)(F)F)c1 (stereo not drawn) [Example 166, 5-[1-(4-Chloro-2-trifluoromethyl-benzyl)-1H-indazol-5-ylmethylene]-2-(3-hydroxy-[1,4′]bipiperidinyl-1′-yl)-thiazol-4-one]
